# Data from patent US20150141460A1, “Anti-inflammatory Compositions” (Cambridge Enterprise Limited, priority 2007, published 2015).
# Where two headings read alike, the source gives them in different places.
# Assays:
# [1] = Identification of the primary metabolites in pooled rat urine by LC-MS-MS; type: in vivo; conditions: single oral dose 3 mg/kg in 1% CMC, pooled urine over 24 hrs, qualitative
# Method: (§1) Urine was collected from rats exposed to a single oral dose (3 mg/kg in 1% CMC) of each compound over a 24 hour period in metabolic cages. The pooled urine sample was then subjected to full scan mass spectral analysis, using the same LC-MS conditions as described in example 1 above. Further MS-MS analysis of the product ions was then performed, and likely fragmentations/re-arrangements assigned from the publicly available Metabolite ID database.
# For the major metabolites, the assigned structures were confirmed by synthesis of authentic samples, using methods well known in the art, which were subject to LC-MS-MS analysis under the same conditions as the urine samples.
# Note that metabolite ID studies provide only qualitative estimates of the relative amounts of the different metabolites present, and separately validated assays with appropriate internal standards would be required to quantitate each metabolite species.
# [2] = Distribution of unchanged compound into tissues and urine 24 hrs after a single dose in rat; type: in vivo; conditions: for Urine (ng/ml) unchanged parent compound: 24 hrs after a single oral dose 3 mg/kg in 1% CMC
# Method: as §1
# To provide a quantitative estimate of the degree of metabolism suffered by each of the compounds tested, the amount of unchanged parent compound in urine was measured using the same validated LC-MS assay described in example 1, using (S)-3-(2′,2′-dimethylpropanoylamino)-caprolactam as an internal standard. In addition, the level of compounds in various target tissues was also determined.
# [3] = tested on: MCP-1 induced migration of THP-1 cells; experiment: ChemoTx transwell migration assay, MCP-1 induced migration of THP-1 cells; type: cell-based; conditions: Homo sapiens
# Method: FIGS. 6A-6F show representative dose response curves for the inhibition of chemokine-induced leukocyte migration in vitro, for each of the five compounds (I′) to (V) in the ChemoTx™ transwell migration assay. In each experiment, THP-1 cells were induced to migrate using a maximally effective dose of the chemokine MCP-1 in the presence or absence of various doses (from 10 pM to 1 μM) of each compound. An appropriate vehicle control was used in each experiment. The percentage inhibition of MCP-1 induced migration (calculated as the number of cells migrated in the presence of MCP-1 minus the number of cells migrated with MCP-1 omitted from the lower chamber) at each concentration of each test compound is shown as the mean of triplicate determinations, with whiskers representing SEM. The ED50 was estimated by linear interpolation of the presented graphs. The Y-axis of each graph represents the percentage inhibition of MCP-1 induced migration; the X-axis represents the concentration of test compound present in units of nM (0.01-1000).
# In principle, this assay consists of two chambers separated by a porous membrane. The chemoattractant is placed in the lower compartment and the cells are placed in the upper compartment. After incubation for a period at 37° C. the cells move towards the chemoattractant, and the number of cells in the lower compartment is proportional to the chemoattractant activity (relative to a series of controls).
# The THP-1 cell line (European Cell Culture Collection) were used as the leukocyte cell population.
# First, the cell suspension to be placed in the upper compartment is prepared. The THP-1 cells are pelleted by centrifugation (770×g; 4 mins) and washed with Geys Balanced Salt Solution with 1 mg/ml BSA (GBSS+BSA). This wash is then repeated, and the cells repelleted before being resuspended in a small volume of GBSS+BSA for counting, for example using a standard haemocytometer.
# The volume of GBSS+BSA is then adjusted depending on the number of cells present so that the cells are at final density of 4.45×10^6 cells per ml of GBSS+BSA. This ensures that there are […] THP-1 cells in each 25 μl of the solution that will be placed in the upper chamber of the plate.
# To test a single compound for its ability to inhibit chemokine induced migration, it is necessary to prepare two lots of cells. The suspension of THP-1 cells at 4.45×10^6 cells/ml is divided into two pots. To one pot the inhibitor under test is added at an appropriate final concentration, in an appropriate vehicle (for example at 1 μM in not more than 1% DMSO). To the second pot an equal volume of GBSS+BSA plus vehicle as appropriate (e.g. not more than 1% DMSO) is added to act as a control.
# Next, the chemoattractant solution to be placed in the lower compartment is prepared. […]
# [4] = THP-1 cell line, maximal dose of chemoattractant, Table 6, read-out: ED50 MCP-1 induced migration
# [5] = THP-1 cells, Table 5, read-out: Functional ED50 versus MCP-1
Structure (SMILES),major metabolites / route of metabolism detected in urine [1],Urine (ng/ml) unchanged parent compound [2] [ng/mL],"unchanged parent compound recovered in urine, % of the injected dose ([2]; single oral dose 3 mg/kg in 1% CMC, 24 hrs)","EC50 [3, 4] [nM]","EC50 [3, 5] [nM]"
"CC(C)(C)C(=O)N[C@H]1CCCNC1=O [Compound (I′), (S)-3-(2′,2′-dimethylpropanoylamino)-tetrahydropyridin-2-one]",no significant metabolites,24567,more than 60%,0.05,0.05
"O=C1NCCCC[C@@H]1NC(=O)C12CC3CC(CC(O)(C3)C1)C2 [Compound (V), 3-(3′-hydroxyadamantyl-1-carbonylamino)-caprolactam]",the glucuronidated compound was the major metabolite,16300,,0.12,0.12
